Legend:
Experiment in all cases: cells
TG-LAM-134-P0 = tested on: TG-LAM-134-P0; set-up: species or system primary AML patient blasts; settings: 48 h, read-out: IC50 (µM) / AB8939
TG-LAM-135-P0 = tested on: TG-LAM-135-P0; set-up: species or system primary AML patient blasts; settings: 48 h, read-out: IC50 (µM) / AB8939
TG-LAM-136-P0 = tested on: TG-LAM-136-P0; set-up: species or system primary AML patient blasts; settings: 48 h, read-out: IC50 (µM) / AB8939
TG-LAM-138-P0 = tested on: TG-LAM-138-P0; set-up: species or system primary AML patient blasts; settings: 48 h, read-out: IC50 (µM) / AB8939
TG-LAM-139-P0 = tested on: TG-LAM-139-P0; set-up: species or system primary AML patient blasts; settings: 48 h, read-out: IC50 (µM) / AB8939
TG-LAM-140-P0 = tested on: TG-LAM-140-P0; set-up: species or system primary AML patient blasts; settings: 48 h, read-out: IC50 (µM) / AB8939
TG-LAM-141-P0 = tested on: TG-LAM-141-P0; set-up: species or system primary AML patient blasts; settings: 48 h, read-out: IC50 (µM) / AB8939
TG-LAM-142-P0 = tested on: TG-LAM-142-P0; set-up: species or system primary AML patient blasts; settings: 48 h, read-out: IC50 (µM) / AB8939
TG-LAM-143-P0 = tested on: TG-LAM-143-P0; set-up: species or system primary AML patient blasts; settings: 48 h, read-out: IC50 (µM) / AB8939
TG-LAM-144-P0 = tested on: TG-LAM-144-P0; set-up: species or system primary AML patient blasts; settings: 48 h, read-out: IC50 (µM) / AB8939
TG-LAM-145-P0 = tested on: TG-LAM-145-P0; set-up: species or system primary AML patient blasts; settings: 48 h, read-out: IC50 (µM) / AB8939
TG-LAM-75-P3 = tested on: TG-LAM-75-P3; set-up: species or system primary AML patient blasts; settings: 48 h, read-out: IC50 (µM) / AB8939
TG-LAM-76-P3 = tested on: TG-LAM-76-P3; set-up: species or system primary AML patient blasts; settings: 48 h, read-out: IC50 (µM) / AB8939
TG-LAM-77-P0 = tested on: TG-LAM-77-P0; set-up: species or system primary AML patient blasts; settings: 48 h, read-out: IC50 (µM) / AB8939
786-O = settings: Homo sapiens, 786-0, 144 h, read-out: AB8939
HRT-18 = settings: Homo sapiens, HRT-18, 144 h, read-out: AB8939
MDA-MB-468 = settings: Homo sapiens, MDA-MB-468, 144 h, read-out: AB8939
CHRF = tested on: CHRF; set-up: species or system CMK; settings: 72 h, read-out: AB8939 (IC50 nM)
CMK = tested on: CMK; set-up: species or system CHRF; settings: Homo sapiens, 72 h, read-out: AB8939 (IC50 nM)

**Q.** Which results are given for `CCOCc1ccc(C)c(Nc2ncc(-c3ccc(N4CCNC4=O)cc3)o2)c1` [AB8939]?
**A.** IC50 (TG-LAM-134-P0): 0.08 µM; IC50 (TG-LAM-135-P0): > 5 µM; IC50 (TG-LAM-136-P0): 0.04 µM; IC50 (TG-LAM-138-P0): > 5 µM; IC50 (TG-LAM-139-P0): 0.94 µM; IC50 (TG-LAM-140-P0): 0.06 µM; IC50 (TG-LAM-141-P0): 0.12 µM; IC50 (TG-LAM-142-P0): > 5 µM; IC50 (TG-LAM-143-P0): 0.36 µM; IC50 (TG-LAM-144-P0): 0.38 µM; IC50 (TG-LAM-145-P0): 1.8 µM; IC50 (TG-LAM-75-P3): 0.05 µM; IC50 (TG-LAM-76-P3): 0.013 µM; IC50 (TG-LAM-77-P0): > 5 µM; IC50 (786-O): 87 nM; IC50 (HRT-18): 1 nM; IC50 (MDA-MB-468): 14 nM; IC50 (CHRF): 9.7 nM; IC50 (CMK): 5.68 nM
